According to paper PMC3531619 (Angewandte Chemie (International Ed. in English), 2012):
Where no end group is shown, it is not given here. [ ]: non-standard residue; d: D form. Bpa = N[C@@H](Cc1ccc(C(=O)c2ccccc2)cc1)C(=O)O

Assays:
[1] = tested on: PP1; experiment: Streptavidin pull-down of PP1 with biotinylated peptides from cell lysates; assay type: binding, human; conditions: HEK293 and U2OS cell lysates, streptavidin-coated Sepharose beads, immunoblot
[2] = tested on: PP2A; experiment: Streptavidin pull-down of PP2A with biotinylated peptides from cell lysates; assay type: binding, human; conditions: U2OS cell lysates, streptavidin beads, immunoblot
[3] = tested on: U2OS cells; experiment: Cell viability assay; assay type: cell-based, human; conditions: conditions of the in-cell experiments

Substance	Co-sedimentation of PP1 in pull-down [1]	Co-precipitation of PP2A in pull-down [2]	Cytotoxicity under the experimental conditions [3]
RRKRPKRKRKNARATAAEAAEII [PDP2m]	co-precipitated neither PP1 nor PP2A	co-precipitated neither PP1 nor PP2A	
RRKRPKRKRKNARATA[Bpa]EAAEII [PDP3m]			neither PDP3 nor PDP3m showed any cytotoxicity
